“And” between values parts separate entries of the source, which are not always exact repeats. Equal entries are not always repeated.
What was measured:
[1] = system: cleaved (active) caspase-3 and PARP; experiment: Western blotting of cleaved caspase-3 and PARP; assay type: cell-based, murine; conditions: 10 μM, 24 h
Source text: To quantify the expression levels of RARα, RARβ, RARγ, caspase-3, cleaved caspase-3, and cleaved PARP, cells were lysed with RIPA lysis buffer. […] Primary antibodies were detected with mouse anti-Rabbit IgG-HRP (1:1000, Santa Cruz, sc-2357), donkey anti-goat IgG-HRP (1:1000, Santa Cruze, sc-2020), or anti-Mouse IgG-HRP (1:1000, Santa Cruz, sc-2005).
Supplementary Figure 37. WYC-209 induces cleaved caspase-3 and PARP expressions.
(a) Representative images of cleaved PARP and cleaved caspase-3 protein expressions in control B16-F1 cells cultured on 2D rigid dishes and treated 0.1% DMSO, 1 or 10 µM WYC-209, WYC-209A or WYC-209B for 24 h. (b) Representative images of cleaved PARP and cleaved caspase-3 protein expression of control B16-F1 cells seeded in 3D soft fibrin gels for […]
hours. (c, d) Quantification of expression levels of cleaved PARP and cleaved caspase-3 in (a). (e, f) Quantification of expression levels of cleaved PARP and cleaved caspase-3 in (b).
All values are normalized by GAPDH. Mean ± s.e.m.; 3 separate experiments; ns, not […]
(§1) (1 picture or pasted object on this page, not shown here)

[2] = system: B16-F1 TRCs; experiment: Cell cycle analysis (BrdU flow cytometry), S phase of TRCs; assay type: cell-based, murine; conditions: 10 μM, 24 hours
Protocol: For Annexin-V and PI staining to quantify cell apoptosis, treated TRCs were isolated from 3D fibrin gel by using 5 mg mL^−1 Dispase II (Sigma), cells were labeled with FITC-conjugated Annexin-V and PI according to the manufacturer’s instruction (Biolegend). Data were acquired on a BD Cantoll (BD biosciences) and analyzed with FlowJo software. For BrdU staining to quantify cell proliferation, cells were labeled with FITC-conjugated anti-BrdU antibody according to the manufacturer’s instruction (FITC BrdU Flow Kit, BD Biosciences) and then data were acquired on an Accuri C6 (BD Biosciences) and analyzed with BD Accuri C6 software.
Supplementary Figure 13. WYC-209 blocks S phase of TRCs. Different cancer cell lines cultured in 3D soft fibrin gel on day 0, then treated with 0.1, 1, or 10 μM WYC-209, WYC-209A, WYC-209B on day 4, isolated cells after 24 hours and labeled with FITC-conjugated anti-BrdU antibody for cell cycle analysis, 10 μM ATRA and Tazarotne as positive controls. (a) Representative images of flow cytometry in different conditions. (b) Quantification of S phase ratio in different conditions. Mean ± s.e.m.; n=3 independent experiments; * P<0.05; ** P<0.01; *** P<0.001 (Student’s t-test).
as §1

[3] = system: TRCs of A2780, A549, MCF-7, MDA-MB-435s, A375; experiment: Colony growth of TRCs of five human cancer cell lines (summary statements); assay type: cell-based
Protocol: Salmon fibrinogen and thrombin were purchased from Reagent Proteins (CA, USA). 3D fibrin gels were prepared as described previously[5],[6]. In brief, fibrinogen was diluted into 2 mg mL^−1 with T7 buffer (pH 7.4, 50 mM Tris, 150 mM NaCl). Cells were detached from 2D rigid dishes and cell density was adjusted to 10^4 cells per mL. Fibrinogen and cell solution mixture were made by mixing the same volume of fibrinogen solution and cell solution, resulting in 1 mg mL^−1 fibrinogen and 5000 cells per mL in the mixture fibrin gels. A volume of 50 μL cell/fibrinogen mixture was seeded into each well of 96-well plate and mixed well with pre-added 1 μL thrombin (100 U mL^−1). The cell culture plate was then incubated in 37 °C cell culture incubator for 10 min. Finally, 200 μL of DMEM medium containing 10% FBS and antibiotics was added.
Control B16-F1, A2780, A549, MCF-7, MDA-MB-435s, and A375 cells were cultured in 90-Pa fibrin gels to form round colonies and then treated with 0.1, 1, and 10 μM WYC-209, WYC-209A, and WYC-209B or 0.1% DMSO on day 3, which was washed out with pre-warmed PBS on day 4 with fresh medium, and then kept culturing till day 7 or day 9.

[4] = system: unselected human cancer cells; experiment: Unselected human cancer cells on 2D rigid dishes; assay type: cell-based; conditions: 10 μM, 48 hours
Protocol: Supplementary Figure 20. WYC-209 detaches adherent human cancer cells on rigid plastic. (a-e): human melanoma MDA-MB-435s (a), human breast cancer MCF-7 (b), human ovarian cancer A2780 (c), human malignant melanoma A375 (d), and human lung cancer A549 (e) were cultured on rigid plastics and treated with 0.1, 1, or 10 μM WYC-209, WYC-209A, or WYC-209B and cell numbers were measured for 48 hours. Cell nuclei were stained with DAPI. None: medium only; DMSO: medium containing 0.1% DMSO. Cell numbers per view field were quantified. Mean ± s.e.m.; n= 5 samples; 3 separate experiments; *P<0.05; ** P<0.01; *** P<0.001 […]
as §1

[5] = system: B16-F1 TRCs lung metastases; experiment: Lung metastasis of B16-F1 TRCs in immune-competent mice; assay type: in vivo, C57BL/6 mice; conditions: for Metastases in H&E-stained organ sections: 0.022 mg kg-1; for Mice with lung metastases: 8 mice per group, day 30
Source text: Four- to six-week-old female and male C57BL/6 mice were used in mice experiment. Mice were randomized into different groups. In metastasis experiment, B16-F1 cell spheroids were selected from 3D 90-Pa fibrin gels and pipetted to single cells. These TRCs were harvested and the cell number was counted under microscopy. The cells were then suspended in PBS with appropriate cell density. Thirty thousand TRCs were intravenously injected into the tail vein of each wild-type C57BL/6 mouse. Five days later, inoculated mice were intravenous implanted with 0.022 mg kg^−1 WYC-209, 0.22 mg kg^−1 WYC-209, or 0.1% DMSO every two days. The mice were euthanized and examined for lung tumor formation at day 30. In treated TRCs injected in vivo experiments, B16-F1 cells were seeded into 3D 90-Pa fibrin gels and treated with 10 µM WYC-209 or 0.1% DMSO on day 3, then isolated treated TRCs colonies on day 5 and pipetted into single cell. 30,000 of TRCs were intravenously injected into the tail vein of each wild-type C57BL/6 mouse. No blinding was performed in the mice experiments.
Lung, liver, spleen, bone, stomach, and brain of C57BL/6 mice were fixed by 4% paraformaldehyde then were embedded in paraffin and cut to ~4 µm thick sections by Thermo FINESSE 325. Organ sections were stained by H&E and slides were evaluated for tumor formation by a veterinary pathologist blinded to sample identity.

[6] = system: B16-F1 TRCs; experiment: Colony growth of B16-F1 TRCs in 90-Pa 3D soft fibrin gels; assay type: cell-based, murine; conditions: 10 µM added day 3, washed out day 4, 3 days after washout
[7] = 0.022 mg kg−1 i.v. every two days from day 5 after 30,000 TRCs i.v.
[8] = 0.22 mg kg−1 i.v. every two days from day 5 after 30,000 TRCs i.v.

| Structure (SMILES) | Cleaved (active) caspase-3 and PARP [1] | Decrease of S phase of TRCs [2] | Colony growth after washout and re-plating ([3]; pretreated at 10 μM) | Colony growth after washout and re-plating ([3]; pretreated at 0.1 or 1 μM) | Growth of unselected human cancer cells on 2D rigid dishes [4] | Metastases in H&E-stained organ sections [5] | Mice with lung metastases [5, 7] | Mice with lung metastases [5, 8] | TRC growth after compound washout [6] | IC50 ([3]; Homo sapiens, 0 h, treated on day 0, read-out: IC50 (range over five human TRC types)) | inhibition at 10 µM ([3]; Homo sapiens, 10 μM, read-out: Growth inhibition of all human TRCs) | TRC growth after drug washout ([3]; treated day 3, washed out day 4, 5 days after washout) | Average lung weight versus DMSO group ([5]; 0.22 mg kg−1) | Lung metastases of melanoma TRCs abrogated ([5]; 0.22 mg kg−1) | Lung metastases in untreated mice injected with pretreated TRCs ([5]; TRCs pretreated with 10 µM in fibrin gels day 3-5, 30,000 TRCs i.v., 8 mice) |
| --- | --- | --- | --- | --- | --- | --- | --- | --- | --- | --- | --- | --- | --- | --- | --- |
| CCOC(=O)c1cnc(C#Cc2ccc3c(c2)C(C)(C)CC[S@+]3[O-])nc1 [WYC-209A] | increase | completely abolished S phase | completely inhibited | partially inhibited | completely blocked cell growth | exhibited metastases in the lungs but not in other organs | three out of eight | one out of eight | failed to resume growing |  |  |  |  |  |  |
| CCOC(=O)c1cnc(C#Cc2ccc3c(c2)C(C)(C)CC[S@@+]3[O-])nc1 [WYC-209B] | increase | completely abolished S phase | completely inhibited | partially inhibited | completely blocked cell growth | exhibited metastases in the lungs but not in other organs | three out of eight | one out of eight | failed to resume growing |  |  |  |  |  |  |
| CCOC(=O)c1cnc(C#Cc2ccc3c(c2)C(C)(C)CC[S+]3[O-])nc1 (centres unmarked) [WYC-209] | increase | completely abolished S phase | completely inhibited | partially inhibited | completely blocked cell growth |  | four out of eight and 4/8 | one out of eight and 1/8 | failed to resume growing | 100 to 520 nM | 100% | failed to resume growth | less | 87.5% | no lung metastases |
